Test results: the supplement of paper PMC12076712

Experiments:
Test in all cases: pIC50, kinobeads binding competition
PRKD2 = target: T1, PRKD2 (UniProt Q9BZL6)
T1 sequence (whole entry): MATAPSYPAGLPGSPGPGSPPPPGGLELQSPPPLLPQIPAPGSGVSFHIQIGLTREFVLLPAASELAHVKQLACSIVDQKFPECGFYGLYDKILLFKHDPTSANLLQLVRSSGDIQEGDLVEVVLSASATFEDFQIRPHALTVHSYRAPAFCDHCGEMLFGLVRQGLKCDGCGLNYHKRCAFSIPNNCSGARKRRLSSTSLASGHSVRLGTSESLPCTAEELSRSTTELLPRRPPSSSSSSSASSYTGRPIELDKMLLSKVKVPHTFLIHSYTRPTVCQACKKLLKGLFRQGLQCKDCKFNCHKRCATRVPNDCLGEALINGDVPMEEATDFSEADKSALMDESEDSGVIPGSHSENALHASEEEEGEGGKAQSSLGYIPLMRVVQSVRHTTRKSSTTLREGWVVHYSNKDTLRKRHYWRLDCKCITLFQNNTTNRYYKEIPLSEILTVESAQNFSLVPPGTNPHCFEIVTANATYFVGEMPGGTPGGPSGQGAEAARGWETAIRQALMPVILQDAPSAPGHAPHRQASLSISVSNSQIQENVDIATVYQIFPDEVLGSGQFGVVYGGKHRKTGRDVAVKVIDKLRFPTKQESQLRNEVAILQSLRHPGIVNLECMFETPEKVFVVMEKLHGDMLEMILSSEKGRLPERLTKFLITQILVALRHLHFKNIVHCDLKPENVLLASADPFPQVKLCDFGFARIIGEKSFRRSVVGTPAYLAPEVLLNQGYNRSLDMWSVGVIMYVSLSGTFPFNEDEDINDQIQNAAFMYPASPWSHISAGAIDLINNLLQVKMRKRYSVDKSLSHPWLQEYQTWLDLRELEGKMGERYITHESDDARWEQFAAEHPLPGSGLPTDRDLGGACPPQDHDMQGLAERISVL
Summary of the method: (§1)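 Jurkat cells were exposed alive to nine compound concentrations (top 30 μM, 1:4 steps) or vehicle for 60 min at 37 °C and then lysed. In a second format, nine concentrations (top 30 μM, 1:5 steps) were incubated for 60 min at 4 °C with Jurkat lysate or with a 1:1:1:1 lysate mix of HEK293, K-562, HepG2 and placenta. Proteins captured on Kinobeads were digested and quantified by TMT10 LC-MS/MS. pIC50 values were derived from logistic dose-response fits (R drc package) of fold changes relative to vehicle, in biological duplicates.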

PIM3 = PIM3 (UniProt Q86V86)
Summary of the method: as §1

UniProt O14757 = target: T2, UniProt O14757
T2 sequence (whole entry): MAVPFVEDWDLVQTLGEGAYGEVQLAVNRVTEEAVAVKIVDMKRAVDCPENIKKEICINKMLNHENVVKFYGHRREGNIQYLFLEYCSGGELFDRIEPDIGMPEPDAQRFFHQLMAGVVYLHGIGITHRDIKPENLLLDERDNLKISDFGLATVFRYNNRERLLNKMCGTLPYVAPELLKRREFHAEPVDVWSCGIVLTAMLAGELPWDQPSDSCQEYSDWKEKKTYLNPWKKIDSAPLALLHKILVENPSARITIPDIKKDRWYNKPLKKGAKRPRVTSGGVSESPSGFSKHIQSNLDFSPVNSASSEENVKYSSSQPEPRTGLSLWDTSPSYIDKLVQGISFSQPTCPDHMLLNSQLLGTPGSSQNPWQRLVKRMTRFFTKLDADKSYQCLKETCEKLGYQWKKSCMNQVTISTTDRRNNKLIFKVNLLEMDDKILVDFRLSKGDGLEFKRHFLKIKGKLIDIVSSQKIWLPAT
Summary of the method: as §1

TEC = target: T3, TEC (UniProt P42680)
T3 sequence (whole entry): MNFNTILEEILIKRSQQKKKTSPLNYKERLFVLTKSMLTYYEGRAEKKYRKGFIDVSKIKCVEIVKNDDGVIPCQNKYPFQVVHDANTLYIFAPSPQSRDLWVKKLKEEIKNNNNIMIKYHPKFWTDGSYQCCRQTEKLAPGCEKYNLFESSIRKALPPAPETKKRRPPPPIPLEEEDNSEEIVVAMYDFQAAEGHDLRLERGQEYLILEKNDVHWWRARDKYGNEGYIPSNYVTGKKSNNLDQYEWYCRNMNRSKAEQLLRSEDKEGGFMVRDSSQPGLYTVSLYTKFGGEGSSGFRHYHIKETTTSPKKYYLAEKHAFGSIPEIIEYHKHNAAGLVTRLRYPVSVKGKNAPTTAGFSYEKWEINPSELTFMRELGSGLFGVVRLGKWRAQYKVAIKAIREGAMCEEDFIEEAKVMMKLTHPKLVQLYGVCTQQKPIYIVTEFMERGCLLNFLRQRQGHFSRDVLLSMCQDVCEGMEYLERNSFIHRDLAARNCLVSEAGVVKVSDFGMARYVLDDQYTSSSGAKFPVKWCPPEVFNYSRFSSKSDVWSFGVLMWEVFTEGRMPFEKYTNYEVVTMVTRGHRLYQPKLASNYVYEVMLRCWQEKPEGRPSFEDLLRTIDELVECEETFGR
Summary of the method: as §1

Jak2 = Jak2 (UniProt O60674)
Jak2, sequence (O60674 whole entry): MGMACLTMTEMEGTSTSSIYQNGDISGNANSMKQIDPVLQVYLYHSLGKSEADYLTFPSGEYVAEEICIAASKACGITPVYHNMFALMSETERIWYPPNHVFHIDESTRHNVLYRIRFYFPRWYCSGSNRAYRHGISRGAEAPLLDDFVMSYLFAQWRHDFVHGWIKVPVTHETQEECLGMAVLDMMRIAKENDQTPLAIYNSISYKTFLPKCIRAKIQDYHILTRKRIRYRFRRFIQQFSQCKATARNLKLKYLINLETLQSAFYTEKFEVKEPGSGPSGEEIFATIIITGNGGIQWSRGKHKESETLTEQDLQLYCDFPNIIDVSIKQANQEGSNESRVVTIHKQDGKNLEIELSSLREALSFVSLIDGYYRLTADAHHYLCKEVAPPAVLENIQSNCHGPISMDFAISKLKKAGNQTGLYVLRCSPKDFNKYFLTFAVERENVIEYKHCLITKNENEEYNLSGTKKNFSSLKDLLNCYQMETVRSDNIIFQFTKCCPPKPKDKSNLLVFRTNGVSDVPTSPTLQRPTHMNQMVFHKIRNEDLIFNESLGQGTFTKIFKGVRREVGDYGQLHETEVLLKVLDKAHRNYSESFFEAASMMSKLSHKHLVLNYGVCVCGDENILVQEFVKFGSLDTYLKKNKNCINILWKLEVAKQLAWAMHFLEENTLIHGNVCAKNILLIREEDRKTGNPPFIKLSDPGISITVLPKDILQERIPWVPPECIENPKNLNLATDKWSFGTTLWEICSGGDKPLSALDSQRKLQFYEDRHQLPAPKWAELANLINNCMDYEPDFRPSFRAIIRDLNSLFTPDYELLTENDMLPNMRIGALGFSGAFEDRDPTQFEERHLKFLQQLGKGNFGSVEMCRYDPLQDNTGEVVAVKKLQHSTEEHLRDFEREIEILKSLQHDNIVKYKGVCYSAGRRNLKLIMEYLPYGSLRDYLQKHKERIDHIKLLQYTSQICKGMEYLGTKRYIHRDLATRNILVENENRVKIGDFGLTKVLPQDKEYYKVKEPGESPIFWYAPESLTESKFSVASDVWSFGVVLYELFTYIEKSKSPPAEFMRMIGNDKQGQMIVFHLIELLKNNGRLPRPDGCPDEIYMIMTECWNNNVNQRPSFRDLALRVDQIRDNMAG
Summary of the method: as §1

pIC50 (PRKD2; cell material: Lysate mix)	pIC50 (PIM3; cell material: Jurkat cells)	pIC50 (PIM3; cell material: Lysate mix)	pIC50 (UniProt O14757; cell material: Lysate mix)	pIC50 (TEC; cell material: Lysate mix)	pIC50 (Jak2; cell material: Lysate mix)	SMILES	pIC50 (PRKD2; cell material: Jurkat cells)	pIC50 (PRKD2; cell material: Jurkat lysate)	pIC50 (PIM3; cell material: Jurkat lysate)	pIC50 (UniProt O14757; cell material: Jurkat cells)	pIC50 (UniProt O14757; cell material: Jurkat lysate)	pIC50 (TEC; cell material: Jurkat cells)	pIC50 (TEC; cell material: Jurkat lysate)	pIC50 (Jak2; cell material: Jurkat lysate)
< 4.52	–	< 4.52	< 4.52	< 4.52	4.73	CCNC(=O)c1cc(Nc2cc(C3CC3)[nH]n2)nc(N2CCN(Cc3ccc(S(=O)(=O)F)cc3)CC2)n1	–	–	–	–	–	–	–	–
< 4.52	–	< 4.52	< 4.52	< 4.52	4.98	CCNC(=O)c1cc(Nc2cc(C)[nH]n2)nc(N2CCN(Cc3ccc(S(=O)(=O)F)cc3)CC2)n1	–	–	–	–	–	–	–	–
< 4.52	–	< 4.52	< 4.52	< 4.52	4.93	C#CCNC(=O)c1cc(Nc2cc(C)[nH]n2)nc(N2CCN(Cc3ccc(S(=O)(=O)F)cc3)CC2)n1	–	–	–	–	–	–	–	–

The remaining lines, values behind:

SMILES	pIC50 (PRKD2; cell material: Lysate mix)	pIC50 (PIM3; cell material: Jurkat cells)	pIC50 (PIM3; cell material: Lysate mix)	pIC50 (UniProt O14757; cell material: Lysate mix)	pIC50 (TEC; cell material: Lysate mix)	pIC50 (Jak2; cell material: Lysate mix)	pIC50 (PRKD2; cell material: Jurkat cells)	pIC50 (PRKD2; cell material: Jurkat lysate)	pIC50 (PIM3; cell material: Jurkat lysate)	pIC50 (UniProt O14757; cell material: Jurkat cells)	pIC50 (UniProt O14757; cell material: Jurkat lysate)	pIC50 (TEC; cell material: Jurkat cells)	pIC50 (TEC; cell material: Jurkat lysate)	pIC50 (Jak2; cell material: Jurkat lysate)
O=C(NCCNC(=O)c1cc(Nc2cc(C3CC3)[nH]n2)nc(N2CCN(Cc3ccc(S(=O)(=O)F)cc3)CC2)n1)OC1CC/C=C/CCC1 (configuration not stated)	< 4.52	5.49	< 4.52	< 4.52	< 4.52	< 4.52	< 4.52	< 4.52	< 4.52	< 4.52	< 4.52	4.8	< 4.52	< 4.52
Cc1cc(Nc2cc(C(=O)NCCNC(=O)OC3CC/C=C/CCC3)nc(N3CCN(Cc4ccc(S(=O)(=O)F)cc4)CC3)n2)n[nH]1 (configuration not stated)	< 4.52	–	< 4.52	< 4.52	< 4.52	< 4.52	–	–	–	–	–	–	–	–
C#CCNC(=O)c1cc(Nc2cc(C3CC3)[nH]n2)nc(N2CCN(Cc3ccc(S(=O)(=O)F)cc3)CC2)n1	< 4.52	–	< 4.52	< 4.52	< 4.52	4.9	5.42	< 4.52	< 4.52	5.16	< 4.52	5.88	< 4.52	< 4.52
